Where “and” joins values, the source holds several entries; their conditions need not be identical. Equal values may be shown once. Read-outs that look alike come from different tables or passages of the source.
Assays:
[1] = system: 22Rv1 prostate xenograft tumors; test: 22Rv1 prostate xenograft tumor model, tumor growth inhibition; type: in vivo, mice
Experimental: (§1) Procedure: The experimental details of the studies, including tumor model, mouse strain, cell number implanted, vehicle used, days of treatment, treatment details, and average tumor size at start of dosing are outlined in Table 1. All study mice were purchased from Beijing Anikeeper Biotech and Matrigel was utilized as a basement membrane for all xenograft models. All xenografts were engrafted subcutaneously in the right flank region. The vehicles and Compound 1 (3 mg/kg) were administered twice weekly (BIW) intraperitoneally and enzalutamide (30 mg/kg) was administered orally once daily (QD), when applicable. Tumor volumes and body weights were measured over the course of study, and doses were adjusted by body weight to achieve the proper dose in terms of mg/kg.

[2] = system: C42B prostate xenograft tumors; test: C42B prostate xenograft tumor model, tumor growth inhibition; type: in vivo, mice
Experimental: as §1

[3] = system: DU145 human prostate cancer tumor cells; test: DU145 subcutaneous CDX model efficacy study (tumor growth inhibition, tolerability); type: in vivo, mice; settings: for tumor growth inhibition (TGI): DU145, P<0.001 vs. vehicle control; for Tumor Growth % on Day 49 / Tumor Size on Day 49 / T/C / TGI: DU145 subcutaneous model, 43 days; for T/C / TGI: Day 49
Experimental: (§2) Procedure: The experimental details of the studies, including tumor model, mouse strain, cell number implanted, vehicle used, days of treatment, treatment details, and average tumor size at start of dosing are outlined in Table 3. All study mice were obtained and the studies were conducted at Pharmaron. Each mouse was inoculated subcutaneously on the right flank with the single cell suspension of DU145 human prostate cancer tumor cells (5×10^6) in 0.1 mL with Matrigel (1:1) in MEM with 10% FBS for tumor development.
(§3) Based on tumor volume, mice were randomly assigned to respective groups using a computer-generated randomization procedure. The study groups and the number of animals per group are shown in Table 4A (efficacy study) and Table 4B (PKPD study).
Treatment for the efficacy cohort was initiated when the mean tumor volume reached 145 mm^3 on Day 7 post tumor cell inoculation. Animals for the efficacy study were randomized into 3 groups: 1) Vehicle Control BIW IP (administered twice per week, intraperitoneally (IP); 2) Compound 1 at 3 mg/kg BIW IP; and 3) Compound 1 at 15 mg/kg BIW IP.
(§4) In the case of an animal reaching a tumor size exceeding 2000 mm^3, the entire group was terminated. Plasma and tumor samples were collected at 4 hours and 72 hours post last dose for all groups. For the PKPD Cohort, the tumors were cut into 2 pieces: one for Western Blotting (WB) with BRD9 analysis, and one for RNAseq analysis. For the Efficacy Cohort, the tumors were analyzed for BRD9 levels by Western Blotting (WB).

[4] = system: LNCaP prostate xenograft tumors; test: LNCaP prostate xenograft tumor model, tumor growth inhibition; type: in vivo, mice
Experimental: as §1

[5] = system: NCI-H660 prostate xenograft tumors; test: NCI-H660 prostate xenograft tumor model, tumor growth inhibition; type: in vivo, mice; settings: NCI-H660 CDX model
Experimental: as §1

BRD9 protein = target: T1, BRD9 protein (Homo sapiens, UniProt Q9H8M2); test: BRD9 levels in DU145 tumors by Western Blotting (PK/PD cohort); type: in vivo; settings: for BRD9 protein degradation (Western Blot): 72 h post last dose, P<0.05 vs. vehicle control
T1 construct: endogenous in cells; host or cells: DU145 human prostate cancer cells grown as subcutaneous xenograft tumors in mice
T1 sequence (Q9H8M2 1-597): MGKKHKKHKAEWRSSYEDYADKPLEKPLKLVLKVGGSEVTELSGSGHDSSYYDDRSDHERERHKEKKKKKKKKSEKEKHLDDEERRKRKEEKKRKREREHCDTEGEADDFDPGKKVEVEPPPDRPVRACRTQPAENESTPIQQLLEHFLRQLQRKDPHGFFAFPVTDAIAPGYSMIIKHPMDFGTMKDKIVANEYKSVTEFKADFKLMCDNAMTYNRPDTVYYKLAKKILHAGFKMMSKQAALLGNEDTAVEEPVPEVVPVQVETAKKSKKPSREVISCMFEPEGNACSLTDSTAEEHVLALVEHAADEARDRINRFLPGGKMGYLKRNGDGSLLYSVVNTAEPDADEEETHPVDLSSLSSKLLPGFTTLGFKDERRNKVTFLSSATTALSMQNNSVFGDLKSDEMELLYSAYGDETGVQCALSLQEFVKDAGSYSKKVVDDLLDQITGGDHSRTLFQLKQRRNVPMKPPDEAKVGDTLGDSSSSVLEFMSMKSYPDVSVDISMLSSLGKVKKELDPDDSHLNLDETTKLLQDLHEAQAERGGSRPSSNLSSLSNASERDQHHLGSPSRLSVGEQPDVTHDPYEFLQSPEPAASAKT
Experimental: as §2, §3
(§5) Treatment for the PKPD cohort was initiated when the mean tumor volume reached 281 mm^3 on Day 14 post tumor cell inoculation. Animals were randomized into 5 groups: 1) Vehicle Control, 3 doses intraperitoneally (IP); 2) Compound 1 at 1 mg/kg, single dose IP; 3) Compound 1 at 15 mg/kg, single dose IP; 4) Compound 1 at 1 mg/kg, 3 doses IP; and 5) Compound 1 at 15 mg/kg, 3 doses IP.
as §4

[6] = Plasma concentration of Compound 1 in DU145 PK/PD cohort; type: in vivo; settings: for concentration at 72 h: BALA/c nude (sic, BALB/c nude); for concentration at 72 h / concentration at 4 h: mouse, plasma, intraperitoneal; for concentration at 4 h: BALB/c nude
Experimental: as §2, §3, §5, §4

[7] = system: VCaP prostate xenograft tumors; test: VCaP prostate xenograft tumor model (Example 1), tumor growth inhibition; type: in vivo, mice
Experimental: as §1

COc1cc(-c2cn(C)c(=O)c3cnc(N4CCC4)cc23)cc(OC)c1CN1CCC(CN2CCC3(CC2)CN(c2ccc4c(c2)C(=O)N(C2CCC(=O)NC2=O)C4)C3)CC1 (stereo not drawn) [Compound 1, 3-(6-(7-((1-(4-(6-(azetidin-1-yl)-2-methyl-1-oxo-1,2-dihydro-2,7-naphthyridin-4-yl)-2,6-dimethoxybenzyl)piperidin-4-yl)methyl)-2,7-diazaspiro[3.5]nonan-2-yl)-1-oxoisoindolin-2-yl) piperidine-2,6-dione]
TGI with Compound 1 3 mg/kg ([1]; 22RV1 CDX model, AR V7+, 3 mg/kg BIW IP): 73.2% | tumor growth inhibition, in words ([1]; 22RV1 xenograft, Compound 1 3 mg/kg BIW IP, enzalutamide 30 mg/kg QD oral): modest tumor growth inhibition which was less than the TGI provided by enzalutamide treatment | TGI ([1]; 22Rv1 CDX model, Compound 1 3 mg/kg BIW IP, enzalutamide 30 mg/kg QD oral): 73.2% | TGI with Compound 1 3 mg/kg ([2]; C42B CDX model, AR+, 3 mg/kg BIW IP): 28.7% | tumor growth inhibition, in words ([2]; C42B xenograft, Compound 1 3 mg/kg BIW IP, enzalutamide 30 mg/kg QD oral): modest tumor growth inhibition which was less than the TGI provided by enzalutamide treatment | tumor growth inhibition (TGI) ([3]; 3 mg/kg BIW IP): 42.2% | tumor growth inhibition (TGI) ([3]; 15 mg/kg BIW IP): 55.3% | safety profile: tolerability ([3]; DU145 study, 1 mg/kg, 3 mg/kg and 15 mg/kg IP during the treatment period): tolerated Compound 1 well | clinical abnormalities ([3]; DU145 study, any of the animals treated): No obvious clinical abnormalities | Tumor Growth % on Day 49 ([3]; 3 mg/kg BIW IP): 710 ± 19% | Tumor Size on Day 49 ([3]; 3 mg/kg BIW IP): 1029 ± 30 mm^3 | T/C ([3]; 3 mg/kg BIW IP): 57.8% | TGI ([3]; 3 mg/kg BIW IP): 42.2% | Tumor Growth % on Day 49 ([3]; 15 mg/kg BIW IP): 549 ± 26% | Tumor Size on Day 49 ([3]; 15 mg/kg BIW IP): 793 ± 31 mm^3 | T/C ([3]; 15 mg/kg BIW IP): 44.7% | TGI ([3]; 15 mg/kg BIW IP): 55.3% | TGI with Compound 1 3 mg/kg ([4]; LNCaP CDX model, AR+, 3 mg/kg BIW IP): 6.0% | tumor growth inhibition (TGI), in words ([4]; LNCaP xenograft, Compound 1 3 mg/kg BIW IP, enzalutamide 30 mg/kg QD oral): did not result in tumor growth inhibition | TGI with Compound 1 3 mg/kg ([5]; AR−, 3 mg/kg BIW IP): 56.9% | TGI ([5]; Compound 1 3 mg/kg BIW IP): 56.9% | BRD9 protein degradation (Western Blot) (BRD9 protein; 15 mg/kg single dose IP): statistically and significantly degrade BRD9 protein | BRD9 protein degradation (Western Blot) (BRD9 protein; 15 mg/kg three doses IP): statistically and significantly degrade BRD9 protein | correlation of plasma PK with in vivo BRD9 degradation (BRD9 protein; DU145 AR-negative prostate CDX model): positively corelates | Plasma Concentration of Compound 1 (individual mice) ([6]; 1 mg/kg BIW 3 doses IP, 4 hours post last dose, group 4): 10.9 ng/mL and 14.4 ng/mL and 6.89 ng/mL | Plasma Concentration of Compound 1 (individual mice) ([6]; 1 mg/kg BIW 3 doses IP, 72 hours post last dose, group 4): 2.75 ng/mL and 1.85 ng/mL | difference in PK between a single dose or three doses ([6]; 1 mg/kg IP): No difference in PK | Plasma Concentration of Compound 1 (individual mice) ([6]; 1 mg/kg single dose IP, 4 hours post last dose, group 2): 18.0 ng/mL and 9.37 ng/mL and 8.07 ng/mL | Plasma Concentration of Compound 1 (individual mice) ([6]; 1 mg/kg single dose IP, 72 hours post last dose, group 2, BLOQ = below quantifiable limit of 1.05 ng/mL): 1.59 ng/mL and BLOQ* | Plasma Concentration of Compound 1 (individual mice) ([6]; 15 mg/kg BIW 3 doses IP, 4 hours post last dose, group 5): 63.4 ng/mL and 71.3 ng/mL | Plasma Concentration of Compound 1 (individual mice) ([6]; 15 mg/kg BIW 3 doses IP, 72 hours post last dose, group 5): 10.5 ng/mL and 6.77 ng/mL | PK exposure, single dose vs three doses ([6]; 15 mg/kg IP): 15 mg/kg (single dose) group had better PK exposure than the 15 mg/kg (three doses) group | Plasma Concentration of Compound 1 (individual mice) ([6]; 15 mg/kg single dose IP, 4 hours post last dose, group 3): 132 ng/mL and 92.3 ng/mL | Plasma Concentration of Compound 1 (individual mice) ([6]; 15 mg/kg single dose IP, 72 hours post last dose, group 3): 15.7 ng/mL and 50.2 ng/mL and 28.6 ng/mL | concentration at 72 h ([6]; 1 mg/kg, 1 mg/kg BIW 3 doses IP, 72 hours post last dose, group 4, read-out: Plasma Concentration of Compound 1 (individual mice)): 2.02 ng/mL | concentration at 72 h ([6]; 1 mg/kg, 1 mg/kg BIW 3 doses IP, 72 hours post last dose, group 4, read-out: Plasma Concentration of Compound 1, Mean): 2.21 ng/mL | concentration at 72 h ([6]; 1 mg/kg, 1 mg/kg single dose IP, 72 hours post last dose, group 2, BLOQ = below quantifiable limit of 1.05 ng/mL, read-out: Plasma Concentration of Compound 1 (individual mice)): 1.18 ng/mL | concentration at 72 h ([6]; 1 mg/kg, 1 mg/kg single dose IP, 72 hours post last dose, group 2, read-out: Plasma Concentration of Compound 1, Mean): 1.39 ng/mL | concentration at 72 h ([6]; 15 mg/kg, 15 mg/kg BIW 3 doses IP, 72 hours post last dose, group 5, read-out: Plasma Concentration of Compound 1 (individual mice)): 6.43 ng/mL | concentration at 72 h ([6]; 15 mg/kg, 15 mg/kg BIW 3 doses IP, 72 hours post last dose, group 5, read-out: Plasma Concentration of Compound 1, Mean): 7.9 ng/mL | concentration at 72 h ([6]; 15 mg/kg, 15 mg/kg single dose IP, 72 hours post last dose, group 3, read-out: Plasma Concentration of Compound 1, Mean): 31.5 ng/mL | concentration at 4 h ([6]; 1 mg/kg, 1 mg/kg BIW 3 doses IP, 4 hours post last dose, group 4, read-out: Plasma Concentration of Compound 1, Mean): 10.8 ng/mL | concentration at 4 h ([6]; 1 mg/kg, 1 mg/kg single dose IP, 4 hours post last dose, group 2, read-out: Plasma Concentration of Compound 1, Mean): 11.8 ng/mL | concentration at 4 h ([6]; 15 mg/kg, 15 mg/kg BIW 3 doses IP, 4 hours post last dose, group 5, read-out: Plasma Concentration of Compound 1 (individual mice)): 82.9 ng/mL | concentration at 4 h ([6]; 15 mg/kg, 15 mg/kg BIW 3 doses IP, 4 hours post last dose, group 5, read-out: Plasma Concentration of Compound 1, Mean): 72.5 ng/mL | concentration at 4 h ([6]; 15 mg/kg, 15 mg/kg single dose IP, 4 hours post last dose, group 3, read-out: Plasma Concentration of Compound 1 (individual mice)): 147 ng/mL | concentration at 4 h ([6]; 15 mg/kg, 15 mg/kg single dose IP, 4 hours post last dose, group 3, read-out: Plasma Concentration of Compound 1, Mean): 124 ng/mL | exposures in plasma, in words ([6]; DU145 PK/PD cohort, 1 and 15 mg/kg IP, 4 h and 72 h post last dose): time and dose dependent exposures | exposure difference between a single dose and three doses ([6]; at each dose level (1 and 15 mg/kg IP)): no obvious exposure difference | TGI with Compound 1 3 mg/kg ([7]; VCaP CDX model, AR V7+, 3 mg/kg BIW IP): 57.8% | tumor growth inhibition, in words ([7]; VCaP xenograft, Compound 1 3 mg/kg BIW IP, enzalutamide 30 mg/kg QD oral): tumor growth inhibition that was greater than the inhibition provided by enzalutamide treatment

From patent publication US20250255857A1, “METHODS OF TREATING ANDROGEN RECEPTOR-INDEPENDENT PROSTATE CANCER” (FOGHORN THERAPEUTICS INC., priority 2022, published 2025)
